Data as given in BigSolDB 2.1.

CC[C@H](C)C(=O)O[C@H]1C[C@@H](C)C=C2C=C[C@H](C)[C@H](CC[C@@H]3C[C@@H](O)CC(=O)O3)[C@H]21
solubility (mole fraction)
Settings | in 2-butanone | in acetone | in ethyl acetate | in isobutyl acetate | in isopropyl acetate | in methyl acetate | in n-butyl acetate | in n-propyl acetate | in sec-butyl acetate | in tert-butyl acetate
285.1 K | 0.00752 | 0.00831 | 0.00417 | 0.00345 | 0.00335 | 0.00309 | 0.00407 | 0.00395 | 0.00365 | 0.00275
288.3 K | 0.00878 | 0.00936 | 0.0047 | 0.00383 | 0.00372 | 0.0034 | 0.00452 | 0.00438 | 0.00401 | 0.00314
291.2 K | 0.00918 | 0.0104 | 0.00517 | 0.00422 | 0.00412 | 0.00376 | 0.00494 | 0.00481 | 0.00446 | 0.00346
294.6 K | 0.0111 | 0.0118 | 0.00586 | 0.0047 | 0.00459 | 0.00417 | 0.00557 | 0.00544 | 0.005 | 0.00386
297.2 K | 0.0115 | 0.013 | 0.00656 | 0.00504 | 0.00497 | 0.00447 | 0.00611 | 0.00587 | 0.00545 | 0.0042
300.3 K | 0.0132 | 0.0146 | 0.00706 | 0.0057 | 0.00553 | 0.00515 | 0.00679 | 0.00658 | 0.00606 | 0.00479
303.1 K | 0.0147 | 0.0163 | 0.00778 | 0.00627 | 0.00606 | 0.00543 | 0.00748 | 0.00724 | 0.00666 | 0.0051
306.3 K | 0.0175 | 0.0183 | 0.0087 | 0.00702 | 0.00677 | 0.00619 | 0.00836 | 0.00803 | 0.00745 | 0.00569
309.4 K | 0.0197 | 0.0206 | 0.00967 | 0.00777 | 0.00756 | 0.00674 | 0.00931 | 0.00901 | 0.0083 | 0.00638
312.2 K | 0.0219 | 0.0228 | 0.0108 | 0.00864 | 0.00832 | 0.00746 | 0.0103 | 0.00997 | 0.00915 | 0.00693
